Assay results taken from patent US10934255B2, “Nrf and HIF activators/HDAC inhibitors and therapeutic methods using the same” (THE BOARD OF TRUSTEES OF THE UNIVERSITY OF ILLINOIS, priority 2017, dated 2021).

Key:
HIF-1α = experiment: HIF1 activation, ODD reporter assay; format: cell-based; details: measured at 10 μM
Procedure: (§1) The present compounds were evaluated for an ability to activate Nrf2 and HIF-1α. Table 1 summarizes Nrf2 activation data obtained in Neh2-luc reporter assay; and HIF1 activation measured in ODD reporter assay.

Nrf2 = Nrf2 activation, Neh2-luc reporter assay; format: cell-based; details: measured at 10 μM
Procedure: as §1

[1] = In vitro metabolic stability in human liver microsomes; format: in vitro ADME; details: human liver microsomes after 60 min at 10 uM
acetylated α-tubulin = experiment: Tubulin acetylation in N2a cells (western blot); format: cell-based, mouse; details: normalized to the values of DMSO
Procedure: Cells were collected using RIPA buffer. WB was analyzed using Image QuantTL and the ratio between the intensity of the acetylated tubulin and the tubulin bands was calculated. These ratios were subsequently normalized to the values of DMSO (fold increase). For each sample 50 μg protein was loaded on a 12% SDS-PAGE gel and blotted on a PVDF membrane. The integrated density of acetylated α-tubulin and α-tubulin was measured on WB using Image J software. Furthermore the ratio between the integrated density of acetylated α-tubulin and α-tubulin was calculated.

HDAC5 = HDAC5 (Homo sapiens, UniProt Q9UQL6); experiment: HDAC5 isoform selectivity assay; format: biochemical; details: Table 2 isoform selectivity; read-out: HDAC Inhibition (IC50 uM) isoform 5
Procedure: (§2) The HDAC1, 2, 4, 5, 6, 7, 8, 9, 10, and 11 assays used isolated recombinant human protein; HDAC3/NcoR2 complex was used for the HDAC3 assay. Substrate for HDAC1, 2, 3, 6, 10, and 11 assays is a fluorogenic peptide from p53 residues 379-382 (RHKKAc); substrate for HDAC8 is fluorogenic diacyl peptide based on residues 379-382 of p53 (RHKAcKAc). Acetyl-Lys(trifluoroacetyl)-AMC substrate was used for HDAC4, 5, 7, and 9 assays. Compounds were dissolved in DMSO and tested in 10-dose IC50 mode with 3-fold serial dilution starting at 30 μM. Control Compound Trichostatin A (TSA) was tested in a 10-dose IC50 with 3-fold serial dilution starting at 5 μM. IC50 values were extracted by curve-fitting the dose/response slopes. Assays were performed in duplicate and IC50 values are an average of data from both experiments.

HDAC2 = HDAC2 (Homo sapiens, UniProt Q92769); experiment: HDAC2 isoform selectivity assay; format: biochemical; details: Table 2 isoform selectivity; read-out: HDAC Inhibition (IC50 uM) isoform 2
Procedure: as §2

HDAC7 = target: T1, HDAC7 (Homo sapiens, UniProt Q8WUI4); experiment: HDAC7 isoform selectivity assay; format: biochemical; details: Table 2 isoform selectivity; read-out: HDAC Inhibition (IC50 uM) isoform 7
T1 sequence (Q8WUI4 1-952): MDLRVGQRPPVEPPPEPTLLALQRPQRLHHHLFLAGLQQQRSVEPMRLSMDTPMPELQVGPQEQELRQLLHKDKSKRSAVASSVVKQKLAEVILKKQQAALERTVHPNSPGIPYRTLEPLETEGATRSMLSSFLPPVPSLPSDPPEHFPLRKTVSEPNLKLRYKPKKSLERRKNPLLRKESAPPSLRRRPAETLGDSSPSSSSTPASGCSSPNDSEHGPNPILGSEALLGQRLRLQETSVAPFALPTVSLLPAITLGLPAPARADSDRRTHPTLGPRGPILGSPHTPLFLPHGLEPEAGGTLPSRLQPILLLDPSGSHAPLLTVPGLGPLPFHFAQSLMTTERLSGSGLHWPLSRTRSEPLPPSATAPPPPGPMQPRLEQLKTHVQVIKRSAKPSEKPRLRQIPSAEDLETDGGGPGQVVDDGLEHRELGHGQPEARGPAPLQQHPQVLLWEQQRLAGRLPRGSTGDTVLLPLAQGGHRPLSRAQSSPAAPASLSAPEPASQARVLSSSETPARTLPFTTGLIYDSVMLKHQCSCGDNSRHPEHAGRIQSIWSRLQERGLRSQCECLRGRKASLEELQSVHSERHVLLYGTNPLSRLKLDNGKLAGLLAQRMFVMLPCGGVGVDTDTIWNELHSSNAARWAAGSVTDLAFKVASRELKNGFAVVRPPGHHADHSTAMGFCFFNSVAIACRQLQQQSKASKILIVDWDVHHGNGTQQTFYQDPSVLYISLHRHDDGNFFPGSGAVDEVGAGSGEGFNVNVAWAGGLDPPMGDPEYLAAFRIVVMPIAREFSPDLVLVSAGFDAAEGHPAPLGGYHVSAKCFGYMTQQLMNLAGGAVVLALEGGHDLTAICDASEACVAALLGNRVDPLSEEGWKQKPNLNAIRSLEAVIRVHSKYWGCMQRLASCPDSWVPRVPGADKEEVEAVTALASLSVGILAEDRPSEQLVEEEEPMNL
Procedure: as §2

HDAC9 = HDAC9 (Homo sapiens, UniProt Q9UKV0); experiment: HDAC9 isoform selectivity assay; format: biochemical; details: Table 2 isoform selectivity; read-out: HDAC Inhibition (IC50 uM) isoform 9
Procedure: as §2

HDAC3/NcoR2 complex = HDAC3/NcoR2 complex (Homo sapiens, UniProt O15379); experiment: HDAC3 isoform selectivity assay; format: biochemical; details: Table 2 isoform selectivity; read-out: HDAC Inhibition (IC50 uM) isoform 3
Procedure: (§3) The HDAC1, 2, 4, 5, 6, 7, 8, 9, 10, and 11 assays used isolated recombinant human protein; HDAC3/NcoR2 complex was used for the HDAC3 assay. […] Acetyl-Lys(trifluoroacetyl)-AMC substrate was used for HDAC4, 5, 7, and 9 assays. […] IC50 values were extracted by curve-fitting the dose/response slopes. Assays were performed in duplicate and IC50 values are an average of data from both experiments.

HDAC11 = target: T2, HDAC11 (Homo sapiens, UniProt Q96DB2); experiment: HDAC11 isoform selectivity assay; format: biochemical; details: Table 2 isoform selectivity; read-out: HDAC Inhibition (IC50 uM) isoform 11
T2 sequence (Q96DB2 1-347): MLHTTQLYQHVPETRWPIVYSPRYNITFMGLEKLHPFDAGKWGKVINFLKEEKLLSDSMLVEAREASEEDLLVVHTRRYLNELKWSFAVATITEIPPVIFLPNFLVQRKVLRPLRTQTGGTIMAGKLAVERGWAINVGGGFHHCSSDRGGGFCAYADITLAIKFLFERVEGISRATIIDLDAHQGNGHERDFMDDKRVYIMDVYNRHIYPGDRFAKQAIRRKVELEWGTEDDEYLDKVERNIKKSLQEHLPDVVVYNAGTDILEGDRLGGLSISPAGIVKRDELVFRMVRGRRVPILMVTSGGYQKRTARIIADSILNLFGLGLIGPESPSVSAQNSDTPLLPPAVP
Procedure: as §3

Sequence of HDAC3/NcoR2 complex (O15379 whole entry, canonical isoform): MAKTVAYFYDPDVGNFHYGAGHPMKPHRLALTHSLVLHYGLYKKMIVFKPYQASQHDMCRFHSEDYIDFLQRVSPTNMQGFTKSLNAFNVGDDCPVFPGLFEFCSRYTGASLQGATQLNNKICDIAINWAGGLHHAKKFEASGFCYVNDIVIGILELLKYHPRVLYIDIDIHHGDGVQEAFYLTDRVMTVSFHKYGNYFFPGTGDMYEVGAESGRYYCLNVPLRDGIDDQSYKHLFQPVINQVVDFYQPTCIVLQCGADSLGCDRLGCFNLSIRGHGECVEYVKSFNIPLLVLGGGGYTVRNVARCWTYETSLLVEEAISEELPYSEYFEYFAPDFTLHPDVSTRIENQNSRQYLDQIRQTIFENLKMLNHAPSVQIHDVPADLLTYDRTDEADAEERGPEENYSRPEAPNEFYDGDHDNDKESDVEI
Sequence of HDAC3/NcoR2 complex (Q9Y618 395-489 partner limits assumed): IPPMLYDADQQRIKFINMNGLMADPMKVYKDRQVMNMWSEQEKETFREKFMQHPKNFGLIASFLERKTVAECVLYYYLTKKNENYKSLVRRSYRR
Sequence of HDAC2 (Q92769 whole entry, canonical isoform): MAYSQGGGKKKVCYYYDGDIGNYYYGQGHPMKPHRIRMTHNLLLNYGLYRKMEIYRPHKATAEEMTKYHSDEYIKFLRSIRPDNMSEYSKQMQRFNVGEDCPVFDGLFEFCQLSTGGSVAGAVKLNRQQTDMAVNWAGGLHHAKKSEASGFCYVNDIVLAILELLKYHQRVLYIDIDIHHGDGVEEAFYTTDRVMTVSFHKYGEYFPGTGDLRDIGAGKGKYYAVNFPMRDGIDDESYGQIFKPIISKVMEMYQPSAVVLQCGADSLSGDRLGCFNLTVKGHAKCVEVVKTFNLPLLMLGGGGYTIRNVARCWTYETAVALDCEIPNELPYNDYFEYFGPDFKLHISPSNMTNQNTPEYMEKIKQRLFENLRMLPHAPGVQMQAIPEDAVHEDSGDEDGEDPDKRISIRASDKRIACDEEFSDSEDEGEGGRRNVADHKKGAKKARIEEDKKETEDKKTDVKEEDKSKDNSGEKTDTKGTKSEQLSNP
Sequence of HDAC9 (Q9UKV0 whole entry, canonical isoform): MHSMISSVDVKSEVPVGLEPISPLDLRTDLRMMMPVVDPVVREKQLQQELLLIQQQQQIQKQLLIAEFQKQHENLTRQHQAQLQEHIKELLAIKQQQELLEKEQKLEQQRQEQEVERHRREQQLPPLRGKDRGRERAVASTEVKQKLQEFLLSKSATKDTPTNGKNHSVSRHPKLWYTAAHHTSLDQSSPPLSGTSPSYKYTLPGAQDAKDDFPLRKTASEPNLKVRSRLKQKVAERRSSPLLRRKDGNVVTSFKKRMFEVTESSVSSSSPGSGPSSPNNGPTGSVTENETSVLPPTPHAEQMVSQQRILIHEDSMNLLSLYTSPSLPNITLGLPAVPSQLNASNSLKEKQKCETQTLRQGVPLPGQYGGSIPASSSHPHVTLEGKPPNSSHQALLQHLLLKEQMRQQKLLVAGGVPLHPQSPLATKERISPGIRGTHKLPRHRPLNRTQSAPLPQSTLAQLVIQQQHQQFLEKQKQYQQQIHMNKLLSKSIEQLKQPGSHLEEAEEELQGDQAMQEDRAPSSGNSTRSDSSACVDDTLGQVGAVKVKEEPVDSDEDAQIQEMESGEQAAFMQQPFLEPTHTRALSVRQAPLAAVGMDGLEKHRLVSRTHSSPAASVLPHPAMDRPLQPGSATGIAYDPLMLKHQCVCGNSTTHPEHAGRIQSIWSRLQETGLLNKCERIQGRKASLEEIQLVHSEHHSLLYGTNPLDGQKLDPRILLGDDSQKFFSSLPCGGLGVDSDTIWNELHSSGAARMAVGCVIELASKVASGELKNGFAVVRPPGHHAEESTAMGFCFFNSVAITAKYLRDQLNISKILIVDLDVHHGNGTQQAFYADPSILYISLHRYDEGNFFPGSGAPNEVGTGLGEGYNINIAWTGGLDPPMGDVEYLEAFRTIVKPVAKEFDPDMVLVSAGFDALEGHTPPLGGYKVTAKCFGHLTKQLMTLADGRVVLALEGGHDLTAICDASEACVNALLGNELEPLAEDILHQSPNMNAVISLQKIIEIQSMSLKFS
Sequence of HDAC5 (Q9UQL6 whole entry, the tested form may be a part, canonical isoform): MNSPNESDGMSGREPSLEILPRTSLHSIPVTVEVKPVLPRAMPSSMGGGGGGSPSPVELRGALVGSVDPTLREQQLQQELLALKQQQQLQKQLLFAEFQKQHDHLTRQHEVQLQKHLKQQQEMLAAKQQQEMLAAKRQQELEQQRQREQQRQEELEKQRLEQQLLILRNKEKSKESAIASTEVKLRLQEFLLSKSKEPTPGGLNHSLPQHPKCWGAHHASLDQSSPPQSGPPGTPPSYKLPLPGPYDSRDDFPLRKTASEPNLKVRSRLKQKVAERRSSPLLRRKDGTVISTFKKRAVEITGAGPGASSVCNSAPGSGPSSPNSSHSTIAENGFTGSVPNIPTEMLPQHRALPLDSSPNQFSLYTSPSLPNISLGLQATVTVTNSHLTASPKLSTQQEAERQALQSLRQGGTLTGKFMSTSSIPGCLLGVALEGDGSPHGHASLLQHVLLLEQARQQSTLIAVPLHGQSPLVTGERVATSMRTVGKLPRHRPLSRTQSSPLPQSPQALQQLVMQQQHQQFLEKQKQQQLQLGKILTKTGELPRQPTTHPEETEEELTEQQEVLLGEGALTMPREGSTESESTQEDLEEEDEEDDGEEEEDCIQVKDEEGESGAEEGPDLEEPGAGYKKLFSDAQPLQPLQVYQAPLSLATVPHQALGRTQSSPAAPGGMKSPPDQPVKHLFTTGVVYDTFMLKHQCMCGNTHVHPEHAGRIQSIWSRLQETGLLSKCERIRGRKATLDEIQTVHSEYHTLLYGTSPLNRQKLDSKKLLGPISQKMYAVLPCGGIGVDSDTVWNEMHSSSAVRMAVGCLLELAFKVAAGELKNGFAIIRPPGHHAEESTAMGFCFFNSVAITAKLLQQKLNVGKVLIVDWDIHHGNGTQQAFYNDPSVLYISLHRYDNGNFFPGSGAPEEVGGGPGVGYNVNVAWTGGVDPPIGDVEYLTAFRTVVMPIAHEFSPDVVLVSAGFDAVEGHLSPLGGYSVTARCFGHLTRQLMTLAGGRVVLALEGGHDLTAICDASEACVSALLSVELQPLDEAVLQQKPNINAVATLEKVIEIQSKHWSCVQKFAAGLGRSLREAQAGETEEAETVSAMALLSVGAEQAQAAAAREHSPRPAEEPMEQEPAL

Row | Compound | fold induction at 10 µM (HIF-1α) | fold induction at 10 µM (Nrf2) | Microsomes stability (% remaining vsT0) [1] | Ratio acetyl tub/tub fold increase (acetylated α-tubulin; 0.1 uM) | IC50 (HDAC5) | IC50 (HDAC2) | IC50 (HDAC7) | IC50 (HDAC9) | IC50 (HDAC3/NcoR2 complex) | IC50 (HDAC11) | Ratio acetyl tub/tub fold increase (acetylated α-tubulin; 1.0 uM) | Ratio acetyl tub/tub fold increase (acetylated α-tubulin; 0.01 uM)
1 | O=C(NO)c1ccc(CN2C(=O)C(F)(F)c3ccccc32)cc1 [II-ING-66, 4-((3,3-Difluoro-2-oxoindolin-1-yl)methyl)-N-hydroxybenzamide] | 5.6 | 9.9 | – | – | – | – | – | – | – | – | – | –
2 | O=C(NO)c1ccc(CN2CCc3cc(Cl)ccc32)cc1 [II-ING-39, 4-((5-Chloroindolin-1-yl)methyl)-N-hydroxybenzamide] | 7 | 6.5 | 81.7 % remaining vsT0 | 1.69 (0.1 uM) fold | – | – | – | – | – | – | – | –
3 | O=C(NO)c1ccc(CN2CCc3ccccc32)cc1 [II-ING-44, N-Hydroxy-4-(indolin-1-ylmethyl)benzamide] | 1.4 | 2.3 | – | 2.68 (0.1 uM) fold | – | – | – | – | – | – | – | –
4 | COc1ccc2c(c1)CCN2Cc1ccc(C(=O)NO)cc1 [II-ING-49, N-Hydroxy-4-((5-methoxyindolin-1-yl)methyl)benzamide] | 1 | 2.4 | – | 2.61 (0.1 uM) fold | – | – | – | – | – | – | – | –
5 | O=C(NO)c1ccc(CN2CCc3ccc(Cl)cc32)cc1 [II-ING-6, 4-((6-Chloroindolin-1-yl)methyl)-N-hydroxybenzamide] | 7.5 | 5.6 | 88.6 % remaining vsT0 | – | 2.7 µM | 6.24 µM | 0.98 µM | 2.06 µM | 4.34 µM | 4.52 µM | 15.5 1.0 uM fold | –
6 | Cn1c(NCc2ccc(C(=O)NO)cc2)nc2ccccc21 [II-ING-13, N-Hydroxy-4-(((1-methyl-1H-benzo[d]imidazol-2-yl)amino)methyl)benzamide] | 2.6 | 1.8 | – | – | 1.96 µM | 5.2 µM | 0.55 µM | 1.1 µM | 3.51 µM | 2.11 µM | – | 2.0 (0.01 uM) fold
7 | O=C(NO)c1ccc(CN2CCc3ccc(F)cc32)cc1 [II-ING-41, 4-((6-Fluoroindolin-1-yl)methyl)-N-hydroxybenzamide] | 3.6 | 7.8 | 88.1 % remaining vsT0 | 3.47 (0.1 uM) fold | 1.39 µM | 7.15 µM | 0.46 µM | 1 µM | 5.43 µM | 5.37 µM | – | –
8 | O=C(NO)c1ccc(CN2CCc3cc(F)ccc32)cc1 [II-ING-42, 4-((5-Fluoroindolin-1-yl)methyl)-N-hydroxybenzamide] | 1.4 | 7.7 | – | 2.46 (0.1 uM) fold | – | – | – | – | – | – | – | –
